Laboratory results as given in PubChem BioAssay AID212 (DTP/NCI, 2004).
Where “and” joins values, the source holds several entries; their conditions need not be identical. Equal values may be shown once. Records with an inconclusive call do not appear.

Test system: BDF1 mice, colon carcinoma 38 sc, T/C %
Test: NCI In Vivo Anticancer Drug Screen. Data for tumor model Colon Carcinoma 38 (subcutaneous) in B6D2F1 (BDF1) mice
Conditions: endpoint: median tumor weight (est.), higher = larger tumour
Description: The antitumor activity of compounds was measured in mice bearing transplantable tumors. Survival or tumor size were measured and the results are expressed as the measurement made in the treated group (T) divided by the measurement made in the vehicle treated control group (C). The tumor model used in this assay is Colon Carcinoma 38 (subcutaneous) in B6D2F1 (BDF1) mice

[1] = dose: 1.0 mg/kg/injection, schedule: Q07DX002 (ip), vehicle: saline
[2] = dose: 4.0 mg/kg/injection, schedule: Q07DX002 (ip), vehicle: saline
[3] = dose: 6.0 mg/kg/injection, schedule: Q07DX002 (ip), vehicle: saline
[4] = dose: 12.5 mg/kg/injection, schedule: Q07DX002 (ip), vehicle: saline with Tween-80
[5] = dose: 50.0 mg/kg/injection, schedule: Q07DX002 (ip), vehicle: saline with Tween-80
[6] = dose: 25.0 mg/kg/injection, schedule: Q07DX002 (ip), vehicle: saline
[7] = dose: 50.0 mg/kg/injection, schedule: Q07DX002 (ip), vehicle: saline
[8] = dose: 100.0 mg/kg/injection, schedule: Q07DX002 (ip), vehicle: saline
[9] = dose: 200.0 mg/kg/injection, schedule: Q07DX002 (ip), vehicle: saline
[10] = dose: 400.0 mg/kg/injection, schedule: Q07DX002 (ip), vehicle: saline
[11] = dose: 25.0 mg/kg/injection, schedule: Q07DX002 (ip), vehicle: Klucel (hydroxypropylcellulose) (HPC)
[12] = dose: 50.0 mg/kg/injection, schedule: Q07DX002 (ip), vehicle: Klucel (hydroxypropylcellulose) (HPC)

SMILES: COc1cc2c(c(OC)c1OC)-c1ccc(OC)c(=O)cc1[C@@H](NC(C)=O)CC2
- T/C (dose: 0.12 mg/kg/injection, schedule: Q07DX002 (ip), vehicle: saline): 105 % of control
- T/C (dose: 0.25 mg/kg/injection, schedule: Q07DX002 (ip), vehicle: saline): 121 % of control
- T/C (dose: 0.37 mg/kg/injection, schedule: Q07DX002 (ip), vehicle: saline): 119 % of control
- T/C (dose: 0.75 mg/kg/injection, schedule: Q07DX002 (ip), vehicle: saline): 69 % of control
- T/C [1]: 159 % of control
- T/C (dose: 1.5 mg/kg/injection, schedule: Q07DX002 (ip), vehicle: saline): 87 % of control
- T/C (dose: 1.56 mg/kg/injection, schedule: Q07DX002 (ip), vehicle: saline): 95 % of control
- T/C (dose: 3.0 mg/kg/injection, schedule: Q07DX002 (ip), vehicle: saline): 87 % of control
- T/C [2]: 111 % of control
- T/C [3]: 5 % of control

SMILES: O=C(Nc1nncs1)c1ccncc1
- T/C [4]: 93 % of control and 98 % of control
- T/C [5]: 91 % of control and 96 % of control
- T/C (dose: 100.0 mg/kg/injection, schedule: Q07DX002 (ip), vehicle: saline with Tween-80): 102 % of control
- T/C (dose: 200.0 mg/kg/injection, schedule: Q07DX002 (ip), vehicle: saline with Tween-80): 81 % of control
- T/C (dose: 400.0 mg/kg/injection, schedule: Q07DX002 (ip), vehicle: saline with Tween-80): 69 % of control and 93 % of control

SMILES: NCCc1cc(O)c(O)c(O)c1
- T/C [6]: 71 % of control
- T/C [7]: 62 % of control
- T/C [8]: 82 % of control
- T/C [9]: 80 % of control
- T/C [10]: 110 % of control
- T/C (dose: 800.0 mg/kg/injection, schedule: Q07DX002 (ip), vehicle: saline): 51 % of control

SMILES: NC(=O)c1ncn2c(=O)n(CCCl)nnc12
- T/C [3]: 110 % of control
- T/C (dose: 6.25 mg/kg/injection, schedule: Q07DX002 (ip), vehicle: Klucel (hydroxypropylcellulose) (HPC)): 43 % of control and 65 % of control
- T/C (dose: 6.25 mg/kg/injection, schedule: Q07DX002 (ip), vehicle: saline): 47 % of control
- T/C (dose: 12.0 mg/kg/injection, schedule: Q07DX002 (ip), vehicle: saline): 51 % of control
- T/C (dose: 12.5 mg/kg/injection, schedule: Q07DX002 (ip), vehicle: Klucel (hydroxypropylcellulose) (HPC)): 22 % of control and 45 % of control
- T/C [11]: 21 % of control and 36 % of control
- T/C [6]: 55 % of control and 59 % of control
- T/C [12]: 2 % of control
- T/C [8]: 2 % of control

SMILES: N#CN=[N+]([O-])c1ccc(C(=O)O)cc1
- T/C (dose: 3.75 mg/kg/injection, schedule: Q07DX002 (ip), vehicle: Klucel (hydroxypropylcellulose) (HPC)): 117 % of control and 123 % of control
- T/C (dose: 7.5 mg/kg/injection, schedule: Q07DX002 (ip), vehicle: Klucel (hydroxypropylcellulose) (HPC)): 124 % of control
- T/C (dose: 15.0 mg/kg/injection, schedule: Q07DX002 (ip), vehicle: Klucel (hydroxypropylcellulose) (HPC)): 87 % of control
- T/C (dose: 60.0 mg/kg/injection, schedule: Q07DX002 (ip), vehicle: Klucel (hydroxypropylcellulose) (HPC)): 159 % of control

SMILES: NNC(=O)c1ccncc1
- T/C (dose: 32.0 mg/kg/injection, schedule: Q07DX002 (ip), vehicle: saline): 118 % of control
- T/C (dose: 36.0 mg/kg/injection, schedule: Q07DX002 (ip), vehicle: saline): 77 % of control and 98 % of control
- T/C (dose: 64.0 mg/kg/injection, schedule: Q07DX002 (ip), vehicle: saline): 104 % of control
- T/C (dose: 72.0 mg/kg/injection, schedule: Q07DX002 (ip), vehicle: saline): 75 % of control and 95 % of control
- T/C (dose: 128.0 mg/kg/injection, schedule: Q07DX002 (ip), vehicle: saline): 120 % of control
- T/C (dose: 144.0 mg/kg/injection, schedule: Q07DX002 (ip), vehicle: saline): 120 % of control

SMILES: C1CN2CCC1CC2
- T/C (dose: 3.12 mg/kg/injection, schedule: Q07DX003 (ip), vehicle: saline): 101 % of control
- T/C (dose: 6.25 mg/kg/injection, schedule: Q07DX003 (ip), vehicle: saline): 78 % of control

SMILES: O=c1[nH]c(=O)n(C2CC(O)C(CO)O2)cc1Br (centres undefined)
- T/C [12]: 112 % of control
- T/C (dose: 400.0 mg/kg/injection, schedule: Q07DX002 (ip), vehicle: Klucel (hydroxypropylcellulose) (HPC)): 86 % of control and 87 % of control
- T/C (dose: 800.0 mg/kg/injection, schedule: Q07DX002 (ip), vehicle: Klucel (hydroxypropylcellulose) (HPC)): 88 % of control

SMILES: Nc1nccc2c1ncn2C1OC(CO)C(O)C1O (centres undefined)
- T/C (dose: 4.6 mg/kg/injection, schedule: Q03HX024 (ip), vehicle: saline with Tween-80): 103 % of control
- T/C (dose: 9.3 mg/kg/injection, schedule: Q03HX024 (ip), vehicle: saline with Tween-80): 114 % of control
- T/C (dose: 18.7 mg/kg/injection, schedule: Q03HX024 (ip), vehicle: saline with Tween-80): 82 % of control and 92 % of control
- T/C (dose: 75.0 mg/kg/injection, schedule: Q03HX024 (ip), vehicle: saline with Tween-80): 93 % of control

SMILES: Cc1ccc(C(=O)[O][Hg][CH2]C2COC([CH2][Hg][O]C(=O)c3ccc(C)cc3)CO2)cc1 (centres undefined)
- T/C [11]: 186 % of control
- T/C [12]: 177 % of control and 193 % of control
- T/C (dose: 100.0 mg/kg/injection, schedule: Q07DX002 (ip), vehicle: Klucel (hydroxypropylcellulose) (HPC)): 154 % of control and 209 % of control

SMILES: CO[C@@]12[C@H](COC(N)=O)C3=C(C(=O)C(C)=C(N)C3=O)N1C[C@@H]1N[C@@H]12
- T/C (dose: 0.5 mg/kg/injection, schedule: Q07DX002 (ip), vehicle: saline): 62 % of control and 70 % of control
- T/C (dose: 0.5 mg/kg/injection, schedule: Q07DX002 (ip), vehicle: water): 90 % of control
- T/C (dose: 1.0 mg/kg/injection, schedule: Q07DX002 (ip), vehicle: clinical formulation): 85 % of control
- T/C [1]: 58 % of control and 61 % of control
- T/C (dose: 1.0 mg/kg/injection, schedule: Q07DX002 (ip), vehicle: water): 80 % of control
- T/C (dose: 2.0 mg/kg/injection, schedule: Q07DX002 (ip), vehicle: clinical formulation): 84 % of control
- T/C (dose: 2.0 mg/kg/injection, schedule: Q07DX002 (ip), vehicle: saline): 35 % of control and 51 % of control
- T/C (dose: 2.0 mg/kg/injection, schedule: Q07DX002 (ip), vehicle: water): 30 % of control
- T/C (dose: 3.75 mg/kg/injection, schedule: Q07DX002 (oral), vehicle: water): 112 % of control
- T/C (dose: 4.0 mg/kg/injection, schedule: Q07DX002 (ip), vehicle: clinical formulation): 20 % of control
- T/C [2]: 8 % of control and 22 % of control
- T/C (dose: 4.0 mg/kg/injection, schedule: Q07DX002 (ip), vehicle: water): 13 % of control
- T/C (dose: 7.5 mg/kg/injection, schedule: Q07DX002 (oral), vehicle: water): 93 % of control
- T/C (dose: 15.0 mg/kg/injection, schedule: Q07DX002 (oral), vehicle: water): 21 % of control
- T/C (dose: 30.0 mg/kg/injection, schedule: Q07DX002 (oral), vehicle: water): 28 % of control

SMILES: CCc1ccccc1N1CCN(C(=O)c2cc(OC)c(OC)c(OC)c2)CC1
- T/C (dose: 12.5 mg/kg/injection, schedule: Q07DX003 (ip), vehicle: Klucel (hydroxypropylcellulose) (HPC)): 92 % of control
- T/C (dose: 25.0 mg/kg/injection, schedule: Q07DX003 (ip), vehicle: Klucel (hydroxypropylcellulose) (HPC)): 96 % of control
- T/C (dose: 50.0 mg/kg/injection, schedule: Q07DX003 (ip), vehicle: Klucel (hydroxypropylcellulose) (HPC)): 47 % of control
- T/C (dose: 100.0 mg/kg/injection, schedule: Q07DX003 (ip), vehicle: Klucel (hydroxypropylcellulose) (HPC)): 64 % of control
- T/C (dose: 200.0 mg/kg/injection, schedule: Q07DX003 (ip), vehicle: Klucel (hydroxypropylcellulose) (HPC)): 54 % of control
- T/C (dose: 400.0 mg/kg/injection, schedule: Q07DX003 (ip), vehicle: Klucel (hydroxypropylcellulose) (HPC)): 13 % of control

SMILES: OCC1OC(n2cnc3c(=S)nc[nH]c32)C(O)C1O (centres undefined)
- T/C [4]: 61 % of control
- T/C (dose: 12.5 mg/kg/injection, schedule: Q07DX002 (ip), vehicle: saline): 90 % of control
- T/C (dose: 25.0 mg/kg/injection, schedule: Q07DX002 (ip), vehicle: saline with Tween-80): 97 % of control and 118 % of control
- T/C [6]: 101 % of control
- T/C [5]: 77 % of control and 83 % of control and 80 % of control
- T/C [7]: 14 % of control
- T/C [8]: 17 % of control
- T/C [9]: 46 % of control
- T/C [10]: 22 % of control
- T/C (dose: 800.0 mg/kg/injection, schedule: Q07DX002 (ip), vehicle: saline with Tween-80): 33 % of control and 34 % of control and 57 % of control
- T/C (dose: 1600.0 mg/kg/injection, schedule: Q07DX002 (ip), vehicle: saline with Tween-80): 28 % of control
